Measured values: patent US20240009191A1, “METHOD AND COMPOSITION FOR THE TREATMENT OF DISEASE” (DIMERIX BIOSCIENCE PTY LTD, priority 2019, published 2024)

Legend:
AT1R and CXCR2 = biological target: T1, AT1R and CXCR2 (Homo sapiens, UniProt P25025+P30556); experiment: IP1 accumulation, HEK293 cells transiently-transfected with AT1R and CXCR2; type: cell-based
T1 sequence (P30556 1-359): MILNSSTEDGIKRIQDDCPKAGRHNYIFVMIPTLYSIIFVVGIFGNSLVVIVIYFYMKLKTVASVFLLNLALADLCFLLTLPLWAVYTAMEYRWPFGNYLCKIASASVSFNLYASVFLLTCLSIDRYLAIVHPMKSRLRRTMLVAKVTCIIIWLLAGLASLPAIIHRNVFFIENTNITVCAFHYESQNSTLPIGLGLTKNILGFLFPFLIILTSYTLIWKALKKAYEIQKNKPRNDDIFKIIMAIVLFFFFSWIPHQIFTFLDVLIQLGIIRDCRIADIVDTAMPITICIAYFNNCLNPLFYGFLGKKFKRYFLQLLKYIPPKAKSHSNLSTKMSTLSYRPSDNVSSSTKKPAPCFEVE
T1 sequence (P25025 1-360): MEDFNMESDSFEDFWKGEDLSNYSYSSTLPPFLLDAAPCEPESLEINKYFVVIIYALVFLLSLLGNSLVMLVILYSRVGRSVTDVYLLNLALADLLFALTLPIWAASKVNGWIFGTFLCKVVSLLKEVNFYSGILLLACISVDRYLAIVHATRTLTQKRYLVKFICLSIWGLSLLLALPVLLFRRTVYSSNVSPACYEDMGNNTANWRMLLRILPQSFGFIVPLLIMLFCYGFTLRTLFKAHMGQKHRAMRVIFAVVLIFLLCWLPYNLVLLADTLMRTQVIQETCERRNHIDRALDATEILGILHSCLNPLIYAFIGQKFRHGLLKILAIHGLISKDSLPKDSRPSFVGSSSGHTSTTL
Experimental: Referring now to FIG. 2, Receptor activation of the phospholipase C pathway was detected through the measurement of D-myo-Inositol 1-Phosphate (IP1) by competitive immunoassay (IP-one—Gq Kit, Cisbio 62IPAPEC). Human Embryonic Kidney (HEK) 293 cells were transiently transfected in suspension with the AGTR1 vector (Origene RC212008) alone or co-transfected with the CXCR2 vector (Origene Cat RC207794) using FuGene™ HD reagent (Promega E2311). […] Agonists were prepared in a threefold serial dilution in stimulation buffer+0.1% BSA and added to the assay to give the appropriate final concentration-response curves, and co-stimulation at a single concentration as required. An IP1 standard curve was also constructed in 14 μl Stimulation Buffer+0.1% BSA. Incubations were conducted for 90 min at 37° C., 5% CO2, after which 3 μl IP1-d2 Reagent and 3 μl IP1 Tb Cryptate Antibody (Cisbio 62IPAPEC), in Lysis & Detection buffer, were added to each well for 60 min at room temperature. Plates were read on a HTRF® compatible reader (PHERAstar™, BMG Labtech), using 337 nm excitation and collecting donor/acceptor emission at 620 nm and 665 nm. A standard curve was plotted to interpolate unknown HTRF ratio (665/620×10 000) measurements as IP1 concentration (nM). […]

AT1R-CXCR2 heteromer = biological target: T2, AT1R-CXCR2 heteromer (Homo sapiens, UniProt P25025+P30556); experiment: BRET trafficking of CXCR2/Rluc8 (Venus/Kras, Rab5, Rab8) with HA-AT1R, pre-treatment with vehicle or antagonists/inverse agonists; type: cell-based
T2 sequence (P25025 1-360): T1 sequence (P25025 1-360)
T2 sequence (P30556 1-359): T1 sequence (P30556 1-359)
Experimental: HEK293FT cells were seeded in 6-well plates at a density of approximately 700,000 cells/well and maintained at 37° C., 5% CO2 in Complete Media (DMEM containing 0.3 mg/ml glutamine, 100 IU/ml penicillin and 100 μg/ml streptomycin (Gibco/Thermo Fisher)) supplemented with 10% fetal calf serum (FCS; Bovogen). Transient transfections were carried out 24 h after seeding using FuGene6™ (Promega) according to manufacturer instructions. 24 h post-transfection, cells were washed with PBS, detached using 0.05% trypsin/0.53 mM EDTA, resuspended in HEPES-buffered phenol red free Complete Media containing 5% FCS and added to a poly-L-lysine-coated white 96-well microplate (Greiner Bio-One). 48 h post-transfection, bioluminescence resonance energy transfer (BRET) assays were carried out following pre-incubation of cells with EnduRen™ (Promega) at a final concentration of 30 μM, at 37° C., 5% CO2 for 2 h. BRET measurements were taken at 37° C. using the LUMlstar™ or CLARIOstar™ (BMG Labtech).
For antagonist/inverse agonist assays, cells were pre-incubated with EnduRen for 1.5 hours, followed by the addition of vehicle or antagonists/inverse agonists (10 μM) for another 30 minutes.
The BRET signal observed between interacting proteins is normalized by subtracting the background BRET ratio. […] In the following examples, the second calculation will be used and the signal is described as ligand-induced BRET′. Furthermore, for data shown in FIGS. 4 to 20, all data points in a given set are corrected relative to the final data point prior to agonist treatment, which is fixed to zero. In keys on FIGS. 7 to 20, “>” means “followed by after 50 minutes”, with agonists added at time zero on the x-axes.
Prior to agonist treatment (added at 0 minutes), a baseline BRET signal was recorded for each of the combinations for 20 minutes. Data were calculated as ligand-induced BRET relative to the ‘vehicle followed by vehicle’ (veh>veh) data set.

**Q.** Which “Rmax, IP1 accumulation” value (AT1R and CXCR2) does the source give for Angiotensin II [AngII] here?
**A.** The value was 567 nM.

**Q.** And the “proximity of CXCR2/Rluc8 to Venus/Kras (BRET)” value (AT1R-CXCR2 heteromer)?
**A.** Its value is “increased proximity”.

**Q.** What about the “proximity of CXCR2/Rluc8 to Venus/Rab5 (BRET)” value (AT1R-CXCR2 heteromer) of the same substance?
**A.** The value was “very small increase”.

**Q.** What about the “proximity of CXCR2/Rluc8 to Venus/Rab8 (BRET)” value (AT1R-CXCR2 heteromer) of the same substance?
**A.** Its value is “clear increase”.
